Results reported in paper PMC5556109, “A combinatorial approach for the discovery of cytochrome P450 2D6 inhibitors from nature” (Scientific Reports, 2017).
Like-named read-outs stand apart in the source and are kept apart here.

Tests used:
[1] = system: P450-Glo detection reaction (unspecific esterase and modified firefly-luciferase); assay: P450-Glo detection reaction control (luciferin-EGE, esterase, luciferase, test compound, no CYP2D6); details: for P450-Glo Detection Reaction MEAN Diff. (inhibition of the detection reaction) / P450-Glo Detection Reaction MEAN (total luminescence): 50 µM test compound; for P450-Glo Detection Reaction MEAN Diff. (inhibition of the detection reaction): difference to DMSO 1% control; for P450-Glo Detection Reaction MEAN (total luminescence): no CYP2D6, DMSO control = 100; for p < 0.05 (significant inhibition of the P450-Glo detection reaction): 50 µM, one-way ANOVA, Dunnett's test vs DMSO control
CYP2D6 [2] = details: Supplementary Table S2, supplementary reference list, cited from earlier work; for IC50: read-out: Inhibitory potency IC50
CYP2D6 [3] = assay: CYP2D6 inhibition of virtual hits already reported in the literature
Text: the hits according to non-available CYP2D6 inhibition data, plant origin and availability. The

CYP2D6 [4] = molecular target: CYP2D6 (Homo sapiens, UniProt P10635); assay: P450-Glo CYP2D6 inhibition assay (bioluminescence-based; pre-screen at 100 µM and IC50 determination); details: for classification of CYP2D6 inhibition (actives / weak actives / inactives): ranked by IC50, inactives from pre-screen at 100 µM
Chain of CYP2D6 (Homo sapiens, UniProt P10635) (P10635 whole entry): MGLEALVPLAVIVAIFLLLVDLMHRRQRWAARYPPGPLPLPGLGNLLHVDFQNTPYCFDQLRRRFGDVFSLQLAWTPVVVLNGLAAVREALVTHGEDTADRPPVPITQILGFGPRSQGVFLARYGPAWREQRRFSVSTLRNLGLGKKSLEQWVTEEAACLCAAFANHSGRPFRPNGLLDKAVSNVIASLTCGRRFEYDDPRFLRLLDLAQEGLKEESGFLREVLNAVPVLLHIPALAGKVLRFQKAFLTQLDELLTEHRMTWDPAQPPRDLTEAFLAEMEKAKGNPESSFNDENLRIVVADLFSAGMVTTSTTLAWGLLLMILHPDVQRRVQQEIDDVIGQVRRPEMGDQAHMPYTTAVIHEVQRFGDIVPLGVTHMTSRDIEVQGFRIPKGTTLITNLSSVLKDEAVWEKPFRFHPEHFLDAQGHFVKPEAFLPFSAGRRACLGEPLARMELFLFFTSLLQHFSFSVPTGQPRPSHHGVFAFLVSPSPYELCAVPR

[5] = authors' classification of the literature value, Supplementary Table S2
[6] = IC50, P450-Glo CYP2D6 Inhibition Assay, recombinant human CYP2D6, 6 concentrations (compound 18: 4), n = 3

| Compound | P450-Glo Detection Reaction MEAN Diff. (inhibition of the detection reaction) [1] [%] | P450-Glo Detection Reaction MEAN (total luminescence) [1] [% TL] | p < 0.05 (significant inhibition of the P450-Glo detection reaction) [1] | IC50 (CYP2D6 [4]) [µM] | classification of CYP2D6 inhibition (actives / weak actives / inactives) (CYP2D6 [4]) | also measured |
| --- | --- | --- | --- | --- | --- | --- |
| O=C(NCCCCNCCCNC(=O)c1ccc(O)c(O)c1)c1ccc(O)c(O)c1 [Compound 4, Pistillarin] | 13.61 | 86.39 | Yes |  |  |  |
| COc1cc2c(cc1O)CCN1Cc3c(ccc(OC)c3OC)C[C@H]21 [Corypalmine] |  |  |  |  |  | Classification of literature CYP2D6 inhibition (CYP2D6 [3]; [5]): active; IC50 (CYP2D6 [2]): 1 to 10 µM |
| CCC1=CC2CN3CCc4c([nH]c5ccccc45)C(C(=O)OC)(C2)C13 (single isomer, unassigned; (+)) [Compound 7, (+)-Catharanthine] | 6.41 | 93.59 | Yes | 0.582 | actives (those compounds were classified as active, which exhibited CYP2D6 IC50 values up to 10 µM) |  |
| COc1ccc(CC2c3cc(O)c(OC)cc3CCN2C)cc1O (single isomer, unassigned; (+)) [Compound 19, (+)-Reticuline] | 1.06 | 98.94 | No | 0.0547 | actives (those compounds were classified as active, which exhibited CYP2D6 IC50 values up to 10 µM) |  |
| COC(=O)C1=CO[C@@H](C)[C@H]2CN3CCc4c([nH]c5ccccc45)[C@@H]3C[C@H]12 [Ajmalicine] |  |  |  |  |  | Classification of literature CYP2D6 inhibition (CYP2D6 [3]; [5]): active; IC50 (CYP2D6 [2]): 0.0023 µM |
| COc1cc2c(cc1OC)C1Cc3cc(O)c(O)cc3CN1CC2 (stereo not shown) [Compound 14, Spinosine] | 4.73 | 95.27 | Yes | 0.117 | actives (those compounds were classified as active, which exhibited CYP2D6 IC50 values up to 10 µM) |  |
| CC=C1C2CCN3CCC4(C(=C2C(=O)OC)Nc2ccccc24)C13 (single isomer, unassigned; (+)) [Compound 17, (+)-Condylocarpine] | 7.34 | 92.66 | Yes | 8.16 | actives (those compounds were classified as active, which exhibited CYP2D6 IC50 values up to 10 µM) |  |
| CCC12C=CCN3CC[C@@]4(c5ccc(OC)cc5N(C)[C@H]4[C@@](O)(C(=O)OC)[C@@H]1OC(C)=O)[C@@H]32 (stereo partly shown) [Vindoline] |  |  |  |  |  | Classification of literature CYP2D6 inhibition (CYP2D6 [3]; [5]): active; IC50 (CYP2D6 [2]): 15.9 µM |
| COc1cc2c(cc1OC)C(=O)Cc1ccc3c(c1CN(C)CC2)OCO3 [Cryptopine] |  |  |  |  |  | Classification of literature CYP2D6 inhibition (CYP2D6 [3]; [5]): unclear; Inhibitory potency (CYP2D6 [2]): stated as inhibitor |
| COC1=C[C@@H]2[C@@H]3Cc4ccc(OC)c(O)c4[C@]2(CCN3C)CC1=O [Sinomenine] |  |  |  |  |  | Classification of literature CYP2D6 inhibition (CYP2D6 [3]; [5]): inactive; Inhibitory potency (CYP2D6 [2]; at 50 µM): no inhibition |
| COc1ccc(CC2c3cc(OC)c(OC)cc3CCN2C)cc1OC (stereo not shown) [Laudanosine] |  |  |  |  |  | Classification of literature CYP2D6 inhibition (CYP2D6 [3]; [5]): unclear; Inhibitory potency (CYP2D6 [2]): stated as inhibitor |
| CC[C@]12C=CCN3CC[C@]4(C(=C(C(=O)OC)C1)Nc1ccccc14)[C@@H]32 [Compound 22, Tabersonine] |  | 104.20 | Yes |  | actives (those compounds were classified as active, which exhibited CYP2D6 IC50 values up to 10 µM) | IC50 (CYP2D6 [4]; [6]): 0.419 µM |
| COC1=C[C@]23CCN(C)[C@H](Cc4ccc(OC)c(O)c42)C3=CC1=O [Compound 20, (+)-Salutaridine] | 2.94 | 97.06 | No | 24 | weak actives |  |
| COC(=O)N1c2ccccc2C23C4CN5CCCC6(CCC12C(O)(C6)C4=O)C53 (single isomer, unassigned; (-)) [Compound 16, (-)-Kopsine] | 10.30 | 89.70 | Yes |  |  |  |
| COc1ccc2c(c1OC)CN1CCc3cc4c(cc3C1C2C)OCO4 (stereo not shown) [Compound 3, Thalictrivacine] | 8.23 | 91.77 | Yes |  | actives (those compounds were classified as active, which exhibited CYP2D6 IC50 values up to 10 µM) | IC50 (CYP2D6 [4]; [6]): 5.14 µM |
| COc1cc2c(cc1OC)-c1cc3ccc(OC)c(OC)c3c[n+]1CC2 [Palmatine chloride] |  |  |  |  |  | Classification of literature CYP2D6 inhibition (CYP2D6 [3]): weak; Inhibitory potency (IC50/Ki not specified) (CYP2D6 [2]): 92.6 µM |
| COc1cc2c(cc1OC)[C@H]1[C@@H](C)c3ccc(OC)c(OC)c3CN1CC2 [Corydaline] |  |  |  |  |  | Classification of literature CYP2D6 inhibition (CYP2D6 [3]; [5]): weak; Classification of literature CYP2D6 inhibition (CYP2D6 [3]; w/o preincubation, authors' classification of the literature value, Supplementary Table S2): inactive; IC50 (CYP2D6 [2]; w/ preincubation): 64.5 ± 9.8 µM; IC50 (CYP2D6 [2]; w/o preincubation): 116 ± 7.6 µM |
| COC(=O)C1CC23C=CCN4CCC5(c6ccccc6NC15CC2)C43 (single isomer, unassigned; (-)) [Compound 10, (-)-Venalstonine] | 3.66 | 96.34 | No |  |  |  |
| COc1ccc(/C=C\c2cc(OC)c(OC)cc2CCN(C)C)cc1 [Compound 15, Des-N,O-dimethylarmepavine] | 6.23 | 93.77 | Yes | 0.198 | actives (those compounds were classified as active, which exhibited CYP2D6 IC50 values up to 10 µM) |  |
| COc1ccc(C[C@H]2c3cc(OC)c(OC)cc3CCN2C)cc1O [Compound 11, (+)-Laudanidine] | 5.86 | 94.14 | Yes | 0.38 | actives (those compounds were classified as active, which exhibited CYP2D6 IC50 values up to 10 µM) |  |
| COC(=O)C1C(O)CCC2C[N+]3(C)CCc4c([nH]c5cccc(OC)c45)C3CC21 (stereo not shown) [Compound 8, Venenatine methiodide] | 9.14 | 90.86 | Yes | 4.6 | actives (those compounds were classified as active, which exhibited CYP2D6 IC50 values up to 10 µM) |  |
| COc1cc2c(cc1O)-c1c(O)c(OC)cc3c1[C@H](C2)N(C)CC3 [Compound 18, Bracteoline] | 12.30 | 87.70 | Yes | 2.11 | actives (those compounds were classified as active, which exhibited CYP2D6 IC50 values up to 10 µM) |  |
| COC(=O)C1=CO[C@@H](C)[C@@H]2CN3CC[C@]4(C(=O)Nc5ccccc54)[C@@H]3C[C@H]12 [Compound 1, Pteropodine] | 7.50 | 92.50 | Yes | 33.8 | weak actives |  |
| COc1ccc(C[C@@H]2NCCc3cc(OC)c(O)cc32)cc1O [Compound 9, (S)-Norreticuline] | 7.64 | 92.36 | Yes |  | actives (those compounds were classified as active, which exhibited CYP2D6 IC50 values up to 10 µM) | IC50 at 45 min (CYP2D6 [4]; human, recombinant human CYP2D6 baculosomes, pH 7.4, probe ME-luciferin-EGE): 0.0636 µM |
| O=C(O)c1ccccc1-n1ccc2c([nH]c3ccccc32)c1=O [Compound 5, Secofascaplysic acid] | 20.46 | 79.54 | Yes | 50.4 | weak actives |  |
| COC(=O)C1=CO[C@@H](C)[C@H]2CN3CC[C@@]4(C(=O)Nc5ccccc54)[C@@H]3C[C@H]12 [Compound 23, Isomitraphylline] | 0.59 | 99.41 | No |  |  |  |
